Laboratory results taken from US20230053540A1, “TREATMENT OF LIVER INJURY” (Massachusetts Institute of Technology, priority 2019, published 2023).

Tested on: hepatocytes
Experiment: Seq-Well scRNA-Seq of hepatocytes after APAP overdose (signature scores, DEG vs untreated)
Format: in vivo, mouse
Conditions: A6 vs UT

CC(=O)Nc1ccc(O)cc1 [APAP, acetaminophen]
Gstz1 pct.1: 0.73 | Gtf2a2 A6logFC: 0.2792 | Gtf2a2 avg_logFC: 0.2792 | Gtf2a2 pct.1: 0.379 | Gtpbp4 avg_logFC: 0.4822 | Gtpbp4 pct.1: 0.477 | Gulo avg_logFC: −0.8017 | H2-Ab1 avg_logFC: 0.461 | H2-Ab1 pct.1: 0.158 | H2-D1 A6logFC: 0.2865 | H2-D1 avg_logFC: 0.2865 | H2-D1 pct.1: 0.766 | H2-Eb1 avg_logFC: 0.3279 | H2-Eb1 pct.1: 0.105 | H3f3b avg_logFC: 0.7029 | H6pd avg_logFC: 0.3437 | H6pd pct.1: 0.623 | Haao avg_logFC: −0.5912 | Hacl1 avg_logFC: −0.7069 | Hagh avg_logFC: −0.674 | Hba-a1 avg_logFC: 0.735 | Hba-a2 avg_logFC: 0.5535 | Hbb-bs avg_logFC: 2.862 | Hbb-bt avg_logFC: 1.43 | Hdac11 avg_logFC: −0.3368 | Hdac11 pct.1: 0.1 | Hdlbp avg_logFC: 0.3457 | Hdlbp pct.1: 0.737 | Heatr1 avg_logFC: 0.406 | Heatr1 pct.1: 0.291 | Hebp1 avg_logFC: −0.6354 | Hectd1 A6logFC: 0.308 | Hectd1 avg_logFC: 0.308 | Hectd1 pct.1: 0.547 | Herc1 A6logFC: 0.2562 | Herc1 avg_logFC: 0.2562 | Herc1 pct.1: 0.246 | Herc4 A6logFC: 0.2675 | Herc4 avg_logFC: 0.2675 | Herc4 pct.1: 0.332 | Herpud1 avg_logFC: −0.4976 | Herpud1 pct.1: 0.535 | Hes6 avg_logFC: −0.5613 | Hgd avg_logFC: −0.7586 | Hibadh avg_logFC: −0.4994 | Hibadh pct.1: 0.542 | Hic2 avg_logFC: 0.2898 | Hic2 pct.1: 0.15 | Hif1a avg_logFC: 0.5169 | Hilpda avg_logFC: 0.7786 | Hint1 avg_logFC: −0.6739 | Hint2 avg_logFC: −0.4243 | Hint2 pct.1: 0.425 | Hipk1 A6logFC: 0.2916 | Hipk1 avg_logFC: 0.2916 | Hipk1 pct.1: 0.337 | Hmgcr A6logFC: 0.4167 | Hmgcr avg_logFC: 0.4167 | Hmgcr pct.1: 0.425 | Hmox1 avg_logFC: 1.348 | Hnf4a avg_logFC: 0.8791 | Hnrnpdl avg_logFC: 0.398 | Hnrnpdl pct.1: 0.406 | Hnrnpu A6logFC: 0.3394 | Hnrnpu avg_logFC: 0.3394 | Hnrnpu pct.1: 0.625 | Hpd avg_logFC: −0.5182 | Hpgd avg_logFC: −0.3878 | Hpgd pct.1: 0.115 | Hpn A6logFC: −0.2686 | Hpn avg_logFC: −0.2686 | Hpn pct.1: 0.406 | Hpx avg_logFC: −0.3033 | Hpx pct.1: 0.988 | Hsbp1 A6logFC: −0.2867 | Hsd3b5 avg_logFC: −1.07 | Hsd17b13 avg_logFC: 0.6808 | Hsp90ab1 avg_logFC: 0.3227 | Hsp90ab1 pct.1: 0.916 | Hspb8 avg_logFC: 0.6339 | Iah1 A6logFC: −0.293 | Iah1 avg_logFC: −0.293 | Iah1 pct.1: 0.446 | Ier5 avg_logFC: 0.289 | Ier5 pct.1: 0.134 | Ifitm3 avg_logFC: −0.4251 | Ifitm3 pct.1: 0.587 | Igfbp2 avg_logFC: −0.299 | Igfbp2 pct.1: 0.68 | Iigp1 avg_logFC: 0.7688 | Il1b avg_logFC: 0.7429 | Il1r1 avg_logFC: 1.245 | Il4ra avg_logFC: 0.2574 | Il4ra pct.1: 0.248 | Il6st avg_logFC: 0.3168 | Il6st pct.1: 0.411 | Il13ra1 avg_logFC: 0.2785 | Il13ra1 pct.1: 0.294 | Impad1 A6logFC: 0.3227 | Impad1 avg_logFC: 0.3227 | Impad1 pct.1: 0.391 | Insig2 avg_logFC: 0.67 | Iqgap1 avg_logFC: 0.4554 | Iqgap1 pct.1: 0.162 | Itgb2 avg_logFC: 0.2723 | Itgb2 pct.1: 0.105 | Itih2 avg_logFC: 0.5011 | Ivns1abp A6logFC: 0.3566 | Jak1 avg_logFC: 0.6039 | Jmjd1c avg_logFC: 0.6366 | Kctd3 avg_logFC: 0.2608 | Kctd3 pct.1: 0.239 | Kdelr2 A6logFC: 0.3977 | Kdelr2 avg_logFC: 0.3977 | Kdelr2 pct.1: 0.484 | Kdm5a A6logFC: 0.3514 | Kdm5a avg_logFC: 0.3514 | Kdm5a pct.1: 0.308 | Khk avg_logFC: −0.4915 | Khk pct.1: 0.702 | Kif1b avg_logFC: 0.3718 | Kif1b pct.1: 0.527 | Kif5b avg_logFC: 0.5012 | Kif5b pct.1: 0.494 | Kif21a A6logFC: 0.4042 | Klf3 A6logFC: 0.2674 | Klf3 avg_logFC: 0.2674 | Klf3 pct.1: 0.301 | Klf6 avg_logFC: 0.7324 | Klf15 avg_logFC: −0.4518 | Klf15 pct.1: 0.208 | Kmo avg_logFC: −0.3844 | Kmo pct.1: 0.487 | Krt8 avg_logFC: 1.196 | Krt18 avg_logFC: 1.258 | Lactb2 avg_logFC: −0.5965 | Laptm5 avg_logFC: 0.3382 | Laptm5 pct.1: 0.124 | Lars2 avg_logFC: 1.392 | Lcn2 avg_logFC: 0.4122 | Lcn2 pct.1: 0.301 | Ldlr A6logFC: 0.282 | Ldlr avg_logFC: 0.282 | Ldlr pct.1: 0.432 | Lgals9 A6logFC: −0.27 | Lgals9 avg_logFC: −0.27 | Lgals9 pct.1: 0.621 | Lgmn avg_logFC: 0.4846 | Lgmn pct.1: 0.246 | Lifr avg_logFC: −0.6262 | Lipc A6logFC: −0.2548 | Lipc avg_logFC: −0.2548 | Lipc pct.1: 0.401 | Litaf avg_logFC: 0.3944 | Litaf pct.1: 0.451 | Lmo4 avg_logFC: 0.3205 | Lmo4 pct.1: 0.308 | Lonp2 avg_logFC: −0.4674 | Lonp2 pct.1: 0.561 | Lpgat1 avg_logFC: 0.5952 | Lpin2 avg_logFC: 0.6867 | Lrg1 avg_logFC: 0.4908 | Lrrc58 avg_logFC: 1.001 | Lrrc59 avg_logFC: 0.3772 | Lrrc59 pct.1: 0.422 | Lrrfip1 avg_logFC: 0.4459 | Lrrfip1 pct.1: 0.37 | Lsmd1 A6logFC: −0.3131 | Lyst avg_logFC: 0.4093 | Lyst pct.1: 0.31 | Lyz2 avg_logFC: 0.7322 | Maff avg_logFC: 0.3553 | Maff pct.1: 0.224 | Magi3 A6logFC: 0.27 | Magi3 avg_logFC: 0.27 | Magi3 pct.1: 0.303 | Malat1 avg_logFC: 0.9206 | Malat1 pct.1: 0.871 | Man2a1 avg_logFC: 0.4971 | Map2k3 avg_logFC: 0.4347 | Map2k3 pct.1: 0.427 | Map3k2 A6logFC: 0.2518 | Map3k2 avg_logFC: 0.2518 | Map3k2 pct.1: 0.265 | Mapk6 A6logFC: 0.2568 | Mapk6 avg_logFC: 0.2568 | Mapk6 pct.1: 0.303 | Mapkapk2 A6logFC: 0.3138 | Mapkapk2 avg_logFC: 0.3138 | Mapkapk2 pct.1: 0.396 | Mat1a avg_logFC: 0.7908 | Mat2a avg_logFC: 0.4826 | Mat2a pct.1: 0.487 | Mbl1 avg_logFC: −0.713 | Mbnl1 avg_logFC: 0.4513 | Mbnl1 pct.1: 0.492 | Mcee A6logFC: −0.3199 | Mcl1 avg_logFC: 0.5709 | Mcl1 pct.1: 0.573 | Mcm10 avg_logFC: −0.4874 | Mdn1 avg_logFC: 0.318 | Mdn1 pct.1: 0.251
